# Laboratory results reported in patent publication US9012200B2, “Composition of bacterial strains, bioremediation mixture and use of this composition for the removal of contaminants from the soil and the method for purifying the soil contaminants” (priority 2012, dated 2015).
# Where two headings read alike, the source gives them in different places.
# How the values were obtained:
# Format in all cases: cell-based
# [1] = system: Pseudomonas sp. strain 4G; experiment: Disc diffusion antibiotic susceptibility; conditions: 24 h
# Protocol: (§1) A disc diffusion method was performed to determine the susceptibility of bacteria to the selected antibiotics. We used discs soaked with the antibiotic of a well-defined concentration (BioMerioux) (Table 2) and the minimal inhibitory concentration test was carried out, using E-tests (Oxoid) (Table 3).
# (§2) A McFarland's 0.5 inoculum was prepared from each strain's culture, using a densitometer (EMO). Then, using sterile cotton swabs, the suspension of bacterial cells was spread on dishes with ready-to-use MHA medium (Oxoid), and after 15 minutes, discs soaked with antibiotics at defined concentrations were placed on them.
# (§3) The dishes were incubated at 25-30° C., and the results were read after 24 and 48 hours. The measure of susceptibility of a tested strain to a given antibiotic was the size of the inhibition zone which formed around the disc soaked with the antibiotic. The results read (sizes of zones measured in mm) were compared with the data contained in the European Committee on Antimicrobial Susceptibility Testing (EUCAST) standards from 2010 (Table 4).
# (§4) The measure of susceptibility of the tested bacterial strain to a given antibiotic was the size of the inhibition zone which formed around the disc (Table 5).
# [2] = system: Stenotrophomonas sp. strain 3N; experiment: Disc diffusion antibiotic susceptibility; conditions: 24 h
# Protocol: as §1, §2, §3, §4
# [3] = system: Brevundimonas sp. strain 2N; experiment: Disc diffusion antibiotic susceptibility; conditions: 24 h
# Protocol: as §1, §2, §3, §4
# [4] = system: Stenotrophomonas sp. strain 5L; experiment: Disc diffusion antibiotic susceptibility; conditions: 24 h
# Protocol: as §1, §2, §3, §4
# [5] = system: Achromobacter sp. strain 4P; experiment: Disc diffusion antibiotic susceptibility; conditions: 24 h
# Protocol: as §1, §2, §3, §4
# [6] = system: Arthrobacter sp. strain 1N; experiment: Disc diffusion antibiotic susceptibility
# Protocol: as §1, §2, §3, §4
# [7] = system: Brevundimonas sp. strain 5N; experiment: Disc diffusion antibiotic susceptibility; conditions: 24 h
# Protocol: as §1, §2, §3, §4
# [8] = system: Stenotrophomonas sp. strain 2L; experiment: Disc diffusion antibiotic susceptibility
# Protocol: as §1, §2, §3, §4
# [9] = system: Brevundimonas sp. strain 6N; experiment: Disc diffusion antibiotic susceptibility; conditions: 24 h
# Protocol: as §1, §2, §3, §4
# [10] = system: Pseudomonas sp. strain 3G; experiment: Disc diffusion antibiotic susceptibility; conditions: 24 h
# Protocol: as §1, §2, §3, §4
# [11] = system: Stenotrophomonas sp. strain 6L; experiment: Disc diffusion antibiotic susceptibility; conditions: 24 h
# Protocol: as §1, §2, §3, §4
# [12] = system: Arthrobacter sp. strain 1N; experiment: Antibiotic MIC by E-test; conditions: Arthrobacter, 24 h, read-out: MIC threshold values for a given antibiotic
# Protocol: as §1
# (§5) In the next stage of the research, MIC values of a given antibiotic for the investigated strains were determined, meaning the lowest concentration of the drug, expressed in mg/L, determined in vitro, which inhibits the growth of bacteria at a defined inoculum density, within a given time (Hryniewicz et at, 2001). These studies allow for the closer determination of the degree of susceptibility of bacteria to the applied antibiotics.
# (§6) A bacterial suspension was evenly distributed on dishes with ready-to-use MHA medium (Oxoid), and then plastic testing strips (E-tests) soaked with an antibiotic with a concentration gradient were placed thereon. The dishes were incubated at 25-30° C. for 24 h, and the test results were read after this time.
# (§7) The intersection of elliptical zone of inhibition, which appeared around the test strip, with the value indicator on the gradient scale of the strip, determined the lowest concentration of antibiotic, inhibiting growth of the microorganism (MIC). Similarly as in the disc diffusion method, the obtained results were compared with the guidelines contained in the relevant standards.
# [13] = system: Pseudomonas sp. strain 4G; experiment: Antibiotic MIC by E-test; conditions: Pseudomonas, 24 h, read-out: MIC threshold values for a given antibiotic
# Protocol: as §1, §5, §6, §7
# [14] = system: Stenotrophomonas sp. strain 3N; experiment: Antibiotic MIC by E-test; conditions: Stenotrophomonas, 24 h, read-out: MIC threshold values for a given antibiotic
# Protocol: as §1, §5, §6, §7
# [15] = system: Brevundimonas sp. strain 2N; experiment: Antibiotic MIC by E-test; conditions: Brevundimonas, 24 h, read-out: MIC threshold values for a given antibiotic
# Protocol: as §1, §5, §6, §7
# [16] = system: Stenotrophomonas sp. strain 5L; experiment: Antibiotic MIC by E-test; conditions: Stenotrophomonas, 24 h, read-out: MIC threshold values for a given antibiotic
# Protocol: as §1, §5, §6, §7
# [17] = system: Achromobacter sp. strain 4P; experiment: Antibiotic MIC by E-test; conditions: Achromobacter, 24 h, read-out: MIC threshold values for a given antibiotic
# Protocol: as §1, §5, §6, §7
# [18] = system: Brevundimonas sp. strain 5N; experiment: Antibiotic MIC by E-test; conditions: Brevundimonas, 24 h, read-out: MIC threshold values for a given antibiotic
# Protocol: as §1, §5, §6, §7
# [19] = system: Stenotrophomonas sp. strain 2L; experiment: Antibiotic MIC by E-test; conditions: Stenotrophomonas, 24 h, read-out: MIC threshold values for a given antibiotic
# Protocol: as §1, §5, §6, §7
# [20] = system: Brevundimonas sp. strain 6N; experiment: Antibiotic MIC by E-test; conditions: Brevundimonas, 24 h, read-out: MIC threshold values for a given antibiotic
# Protocol: as §1, §5, §6, §7
# [21] = system: Pseudomonas sp. strain 3G; experiment: Antibiotic MIC by E-test; conditions: Pseudomonas, 24 h, read-out: MIC threshold values for a given antibiotic
# Protocol: as §1, §5, §6, §7
# [22] = system: Stenotrophomonas sp. strain 6L; experiment: Antibiotic MIC by E-test; conditions: Stenotrophomonas, 24 h, read-out: MIC threshold values for a given antibiotic
# Protocol: as §1, §5, §6, §7
Structure (SMILES),Size of the growth inhibition zone [1] [mm],Size of the growth inhibition zone [2] [mm],Size of the growth inhibition zone [3] [mm],Size of the growth inhibition zone [4] [mm],Size of the growth inhibition zone [5] [mm],Size of the growth inhibition zone ([6]; 24 h) [mm],Size of the growth inhibition zone [7] [mm],Size of the growth inhibition zone ([8]; 24 h) [mm],Size of the growth inhibition zone [9] [mm],Size of the growth inhibition zone [10] [mm],Size of the growth inhibition zone [11] [mm],MIC [13] [µg/mL],MIC [14] [µg/mL],MIC [15] [µg/mL],MIC [16] [µg/mL],"MIC ([12]; strain 1N, E-test) [µg/mL]",MIC [18] [µg/mL],MIC [19] [µg/mL],MIC [20] [µg/mL],MIC [21] [µg/mL],further results
"CN[C@H](CC(C)C)C(=O)N[C@H]1C(=O)N[C@@H](CC(N)=O)C(=O)N[C@H]2C(=O)N[C@H]3C(=O)N[C@H](C(=O)N[C@H](C(=O)O)c4cc(O)cc(O)c4-c4cc3ccc4O)[C@H](O)c3ccc(c(Cl)c3)Oc3cc2cc(c3O[C@@H]2O[C@H](CO)[C@@H](O)[C@H](O)[C@H]2O[C@H]2C[C@](C)(N)[C@H](O)[C@H](C)O2)Oc2ccc(cc2Cl)[C@H]1O [VA, vancomycin]",0,0,0,0,0,0,0,0,0,0,0,–,–,–,–,–,–,–,–,–,MIC [12]: ≥ 256 µg/mL
"CC1(C)S[C@@H]2[C@H](NC(=O)Cc3ccccc3)C(=O)N2[C@H]1C(=O)O [P, penicillin G]",0,0,0,0,0,0,0,0,0,0,0,≥ 32,≥ 32,≥ 32,≥ 32,≥ 32,≥ 32,≥ 32,≥ 32,≥ 32,"MIC ([17]; strain 4P, E-test): ≥ 32 µg/mL; MIC [22]: ≥ 32 µg/mL"
"CO/N=C(\C(=O)N[C@@H]1C(=O)N2C(C(=O)O)=C(CSc3nc(=O)c(=O)[nH]n3C)CS[C@H]12)c1csc(N)n1 [TX, ceftriaxone]",–,–,–,–,–,–,–,–,–,–,–,≥ 256,≥ 256,≥ 256,≥ 256,≥ 256,≥ 256,≥ 256,≥ 256,≥ 256,MIC [17]: 16 µg/mL; MIC [22]: ≥ 256 µg/mL
"[H]/N=C(/N)N[C@H]1[C@H](O)[C@@H](O)[C@H](O[C@@H]2O[C@@H](C)[C@](O)(C=O)[C@H]2O[C@@H]2O[C@@H](CO)[C@H](O)[C@@H](O)[C@@H]2NC)[C@@H](N/C(N)=N\[H])[C@@H]1O [S, streptomycin]",0,0,0,8,0,12,0,16,0,10,0,≥ 1020,384,384,64,48,64,64,≥ 1020,≥ 1020,"Size of the growth inhibition zone ([6]; 48 h): 10 mm; Size of the growth inhibition zone ([8]; 48 h): 10 mm; MIC ([17]; strain 4P, E-test): 96 µg/mL; MIC [22]: ≥ 1020 µg/mL"
